{"source": "patent US20260199282A1", "about": "“METHODS AND COMPOSITIONS FOR IMPROVING DRIVING PERFORMANCE” (priority 2022, published 2026)", "key": {"[1]": {"system": "participants with narcolepsy", "experiment": "Standardized on-road driving test, narcolepsy study", "format": "in vivo, human", "conditions": "for SDLP, observed mean (SD) / SDLP, median / SDLP, median difference (range), solriamfetol - placebo: day 7, 300 mg/day; for SDLP, median / SDLP, median difference (range), solriamfetol - placebo: mITT", "protocol": "In this randomized, double-blind, placebo-controlled, crossover study, driving performance during a 1-hour on-road driving test was assessed at 2 hours and 6 hours post-dose following 7 days of treatment with solriamfetol (150 mg/day for 3 days, followed by 300 mg/day for 4 days) or placebo. The primary endpoint was standard deviation of lateral position (SDLP) at 2 hours post-dose.\nAt the end of each treatment period, a standardized on-road driving test (Verster & Roth, 2011) was conducted at 2 hours and at 6 hours after administration of drug or placebo (FIG. 1A). For each test (~1 hour in duration), participants drove a specially instrumented vehicle over a 100 km (~62 miles) primary highway circuit; they were accompanied by a licensed driving instructor with access to dual controls (brakes, clutch, accelerator). Participants were instructed to maintain both a steady lateral position between the delineated boundaries of the slower (right) traffic lane and a constant speed of 95 km/h (~59 mph). Participants were permitted to deviate from these instructions only to pass a slower vehicle, to respond to slower traffic ahead, or to exit and reenter the highway at the turnaround point (these events were removed for the purpose of data analysis by 2 experienced editors of the driving data). Vehicle speed and lateral distance to the left-lane line were continuously recorded, and the data stored on an onboard computer. The driving test could be stopped by the participant or by the accompanying driving instructor if considered it unsafe to continue.\nThe primary outcome assessment from the driving tests was standard deviation of lateral position (SDLP) in centimeters—a measure of “weaving” or road-tracking control (Ramaekers, 2017; Verster & Roth, 2011). […] Standard deviation of speed and number of lane drifts (defined as deviations>100 cm from the absolute lateral position within an 8-second window) were also determined from driving test data.\nChange in SDLP was analyzed with a repeated mixed-effects analysis of variance (ANOVA).\nMaximally selected McNemar symmetry analyses (Laska, Meisner, & Wanderling, 2012) were used to detect asymmetry in the distribution of the change in driving performance at 2 hours and 6 hours post-dose. Single McNemar tests were used to analyze the difference in proportions of participants with improved or impaired driving performance at relevant thresholds. Thresholds of 1.0, 1.5, 2.0, 2.5, 3.0, and 3.5 cm were used.\nAdditional secondary efficacy measures (standard deviation of speed, number of lane drifts, and THAT scores) were analyzed using a similar ANOVA method as described for SDLP. No multiplicity adjustments were made in the efficacy analyses for multiple endpoints, and all p values are therefore nominal."}, "[2]": {"system": "subjects with EDS due to OSA", "experiment": "Toronto Hospital Alertness Test (THAT), OSA study", "format": "in vivo, human", "protocol": "THAT is analyzed using a mixed effect analysis of covariance (ANCOVA) model. The model includes baseline, treatment (JZP-110 and placebo), treatment period, treatment sequence as fixed effects and subject as a random effect. *p-value is nominal.\nThe THAT is a 10-item self-report questionnaire designed to measure perceived alertness in the preceding week (Shapiro 2006). The test was administered at baseline and prior to administration of study drug at Visits 4 and 5"}, "[3]": {"conditions": "cited from earlier work"}, "[4]": {"system": "participants with narcolepsy", "experiment": "Safety / adverse events, narcolepsy study", "format": "in vivo, human", "protocol": "Safety assessments included a physical examination, ECG, clinical laboratory tests, and assessment of adverse events (AEs).\nDemographic, narcolepsy history, and safety data were summarized for the safety population, which included all participants who received ≥1 dose of study drug. No formal statistical testing was performed on these parameters."}}, "note": "Where “and” joins values, the source holds several entries; their conditions need not be identical. Equal entries are not always repeated. Where two headings read alike, the source gives them in different places.", "data": [{"molecule": "NC(=O)OC[C@H](N)Cc1ccccc1", "note": "[Solriamfetol, (R)-2-amino-3-phenylpropyl carbamate]", "values": [{"measurement": "maximum McNemar test, improved vs impaired driving", "setting": "[1]; 2 hours and 6 hours post-dose, thresholds 1.0 to 3.5 cm", "value": "did not show asymmetry"}, {"measurement": "number of lane drifts, LS mean (SE)", "setting": "[1]; 2 hours post-dose", "value": "2.3 (0.8)"}, {"measurement": "number of lane drifts, LS mean difference vs placebo", "setting": "[1]; 2 hours post-dose", "value": "−0.98"}, {"measurement": "standard deviation of speed, LS mean (SE)", "setting": "[1]; 2 hours post-dose", "value": "2.8 (0.2) km/h"}, {"measurement": "standard deviation of speed, LS mean difference vs placebo", "setting": "[1]; 2 hours post-dose", "value": "−0.22", "unit": "km/h"}, {"measurement": "SDLP, observed mean (SD)", "setting": "[1]; 2 hours post-dose", "value": "19.0 (3.6) cm and 18.97 cm"}, {"measurement": "SDLP, median", "setting": "[1]; 2 hours post-dose", "value": 19.08, "unit": "cm"}, {"measurement": "SDLP, median difference (range), solriamfetol - placebo", "setting": "[1]; 2 hours post-dose", "value": "−1.9 (−6.7 to 2.6) cm"}, {"measurement": "SDLP, median difference (range), solriamfetol - placebo", "setting": "[1]; 2 hours post-dose, listed as solriamfetol", "value": "−1.9 cm and −1.90 cm"}, {"measurement": "participants with incomplete driving tests", "setting": "[1]; 2 hours post-dose, on solriamfetol", "value": "Four"}, {"measurement": "number of lane drifts, LS mean (SE)", "setting": "[1]; 6 hours post-dose", "value": "3.6 (0.8)"}, {"measurement": "number of lane drifts, LS mean difference vs placebo", "setting": "[1]; 6 hours post-dose", "value": "−0.08"}, {"measurement": "standard deviation of speed, LS mean (SE)", "setting": "[1]; 6 hours post-dose", "value": "3.1 (0.2) km/h"}, {"measurement": "standard deviation of speed, LS mean difference vs placebo", "setting": "[1]; 6 hours post-dose", "value": "−0.11", "unit": "km/h"}, {"measurement": "SDLP, observed mean (SD)", "setting": "[1]; 6 hours post-dose", "value": "19.8 (3.5) cm"}, {"measurement": "SDLP, median", "setting": "[1]; 6 hours post-dose", "value": 19.59, "unit": "cm"}, {"measurement": "SDLP, median difference (range), solriamfetol - placebo", "setting": "[1]; 6 hours post-dose", "value": "−1.1 (−12.1 to 6.0) cm"}, {"measurement": "SDLP, median difference (range), solriamfetol - placebo", "setting": "[1]; 6 hours post-dose, listed as solriamfetol", "value": "−1.1", "unit": "cm"}, {"measurement": "participants with incomplete driving tests", "setting": "[1]; 6 hours post-dose, on solriamfetol", "value": "Three"}, {"measurement": "driving tests stopped", "setting": "[1]; on solriamfetol, 7/44 tests", "value": 16, "unit": "%"}, {"measurement": "participants with ≥1 incomplete test", "setting": "[1]; while on solriamfetol, either time point", "value": 5}, {"measurement": "THAT total score, LS mean difference, sensitivity analysis", "setting": "[2]; PP population", "value": 2.983}, {"measurement": "THAT total score, LS mean (SE)", "setting": "[2]; end of treatment period, mITT", "value": 27.52}, {"measurement": "THAT total score, mean (SD)", "setting": "[2]; end of treatment period, mITT", "value": "27.5 (7.60)"}, {"measurement": "THAT total score, median", "setting": "[2]; end of treatment period, mITT", "value": 28.5}, {"measurement": "THAT total score, LS mean (SE)", "setting": "[2]; end of treatment period, mITT, listed as JZP-110", "value": "27.52 (1.162)"}, {"measurement": "THAT median total score, difference vs placebo", "setting": "[2]; mITT", "value": 4.0}, {"measurement": "THAT total score, LS mean difference (JZP-110 − Placebo)", "setting": "[2]; mITT", "value": 3.579}, {"measurement": "mean half-life", "setting": "[3]; fasting conditions", "value": 5.9, "unit": "h"}, {"measurement": "median time to peak plasma concentration", "setting": "[3]; fasting conditions", "value": 2, "unit": "h"}, {"measurement": "mean half-life", "setting": "[3]; fed conditions", "value": 6.1, "unit": "h"}, {"measurement": "median time to peak plasma concentration", "setting": "[3]; fed conditions", "value": 3, "unit": "h"}, {"measurement": "serious or fatal TEAEs", "setting": "[4]; in vivo", "value": "no serious or fatal TEAEs"}, {"measurement": "participants experiencing a TEAE, n (%)", "setting": "[4]; while on solriamfetol", "value": "17 (74%)"}, {"measurement": "discontinuation due to AEs", "setting": "[4]; while taking solriamfetol", "value": "No participant discontinued"}]}]}
